Test results reported in patent publication US10696642B2, “TEAD transcription factor autopalmitoylation inhibitors” (The General Hospital Corporation, priority 2015, dated 2020).
pIC50: −log10 of the molar value.

Tests used:
DHHC11 = assay: Selectivity assay: palmitoyl acyltransferase DHHC11; format: biochemical; details: 0 to 10 μM (FIG. 27)
Description: (§1) Assays were performed to measure inhibition of TEAD4 palmitoylation compared with other palmitoyl acyltransferses, DHHC4, DHHC7 and DHHC11. The ability of compound (4) (“CP-1”) to inhibit palmitoylation was tested at concentrations in the range from 0 to 10 μM and the amount of palmitoylation was quantified.

JHH7 cells [1] = assay: Cell proliferation assay, JHH7; format: cell-based, human
Description: (§2) Human cancer cell lines (HuH7, JHH7), transformed MCF10A-YAP and mouse Lats1/2 DKO cells were cultured in 5% FBS containing media. The cells were seeded into 96-well plate with 500 cells/well. Various concentrations of compounds (10 nM to 20 μM) or DMSO control were added into the wells. The cells were further incubated for 2-5 days. The cell viability is determined by using CellTiter Glo (Promega). The data were then normalized with DMSO control and plotted in Prism software Human melanoma cell A375 and dermal fibroblasts are control cells and are tested similarly.
(§3) Assays were performed to measure inhibition of cancer cell proliferation by compound (4). The ability of compound (4) (“CP-1”) to inhibit proliferation cell proliferation in the human hepatocellular carcinoma cell lines HuH7 and JHH7, and in the breast cancer cell line MDA-MB-453. The compound was also tested against the SK-HEP-1 (adenocarcinoma), BT-474 (breast tumor), OCUB-M (breast carcinoma), HCC1143 (ductal carcinoma), EVSA-T (ductal carcinoma) and BT-20 (breast carcinoma) cell lines.

JHH7 cells [2] = assay: Colony formation, JHH7; format: cell-based, human; details: JHH7 (FIG. 28 panel B)
[3] = system: YAP-independent HCC and breast cancer cell lines; assay: Cell proliferation assay, YAP-independent cell lines; format: cell-based; details: compared with YAP dependent cell lines (FIG. 28 panels G-H)
Description: as §3

TEAD1-YAP interaction = TEAD1-YAP interaction (Homo sapiens, UniProt P28347); assay: Gal4-TEAD1/YAP reporter assay; format: cell-based; details: read-out: IC50, inhibition of TEAD1-YAP interaction
Description: FIG. 13 is a plot of inhibition of TEAD1-YAP interaction in a Gal4-TEAD1/YAP reported assay by compound 4. […] (Data are represented as mean+/−SEM, n=3.) FIG. 14 is graph showing compound 4 inhibits YAP-TEAD target gene expression in cancer cell line (HeLa).
To test whether compound 4 can inhibit TEAD's functions, inhibition of the TEAD YAP interaction using the Gal4-TEAD1 reporter system was evaluated.
Gal-UAS-Luc, YAP, Gal4-TEAD1, Gal4-DBD or Myc-TEAD1 and Renilla luciferase control constructs were transfected into 293T cells and 48 h post-transfection, cells were processed using the Dual-Glo luciferase assay system (Promega) following manufacturer's instructions. Luminescence of Firefly and Renilla luciferase activities were quantified using Perkin Elmer EnVision plate reader.

TEAD1 = molecular target: T1, TEAD1 (Homo sapiens, UniProt P28347); assay: TEAD1 palmitoylation in transfected cells; format: cell-based; details: 1 μM alkyne-palmitic acid probe, 0 to 10 μM compound (FIG. 24)
T1 construct: Myc; expressed in transfected cells
Description: (§4) Assays were performed to measure inhibition of TEAD1 and TEAD4 palmitoylation in cells that were transfected with TEAD1 and TEAD4 proteins and labelled with 1 μM of alkyne-palmitic acid probe. The ability of compound (4) (“CP-1”) to inhibit palmitoylation was tested at concentrations in the range from 0 to 10 μM and the amount of palmitoylation was quantified.

TEAD4-YAP interaction = molecular target: T2, TEAD4-YAP interaction (Homo sapiens, UniProt Q15561); assay: Co-immunoprecipitation of TEAD4 and YAP; format: cell-based; details: 0 to 10 μM (FIG. 25)
T2 construct: Myc; expressed in transfected cells; host or cells: HEK293A
Description: (§5) HEK293A cells were transfected with the indicated above. After 48 h, cells were lysed with lysis buffer (50 mM Tris-HCl, pH 7.3, 150 mM NaCl, 0.5 mM EDTA, 1% Triton X-100, PhosSTOP phosphatase inhibitor cocktail, cOmplete EDTA-free protease inhibitors cocktail). Flag-YAP or Myc-TEAD1 was immunoprecipitated with anti-FLAG M2 magnetic beads (Sigma Aldrich) or anti-c-Myc antibody (M4439, Sigma Aldrich), respectively, overnight with rotation at 4° C. TEAD1 was captured using Protein A/G magnetic resins (Life technologies). Protein-bound resins were washed three times with lysis buffer and processed with SDS-PAGE sample buffer. Blots were probed with anti-c-Myc (Sigma Aldrich), anti-HA (Sigma Aldrich), anti-FLAG M2 (F1804, Sigma Aldrich).
Co-immunoprecipitation assays of TEAD4 and YAP were performed. The ability of compound (4) (“CP-1”) to inhibit to inhibit the TEAD4-YAP interaction was tested at concentrations in the range from 0 to 10 μM.

TEAD4 [4] = molecular target: T3, TEAD4 (Homo sapiens, UniProt Q15561); assay: TEAD4 palmitoylation in transfected cells; format: cell-based; details: 1 μM alkyne-palmitic acid probe, 0 to 10 μM compound (FIG. 24)
Description: as §4

TEAD4 [5] = molecular target: T3, TEAD4; assay: Selectivity assay: TEAD4 palmitoylation (Example 20); format: biochemical; details: 0 to 10 μM (FIG. 27)
Description: as §1

HuH7 cells [6] = assay: Colony formation, HuH7; format: cell-based, human
Description: Assays were performed to measure inhibition of cancer cell proliferation in HuH7 cells by compounds (4), (22) and (36), which were each tested at 0-20 μM.

TEAD1-Vgll4 interaction = molecular target: T4, TEAD1-Vgll4 interaction (Homo sapiens, UniProt P28347); assay: Co-immunoprecipitation of TEAD1 and Vgll4; format: cell-based; details: 0 to 10 μM (FIG. 26)
T4 construct: Myc; expressed in transfected cells; host or cells: HEK293A
Description: as §5
Co-immunoprecipitation assays of TEAD1 and Vgll4 were performed. The ability of compound (4) (“CP-1”) to inhibit to inhibit the TEAD1-Vgll4 interaction was tested at concentrations in the range from 0 to 10 μM.

HuH7 cells [7] = assay: Cell proliferation assay, HuH7; format: cell-based, human
Description: as §2, §3

DHHC7 = assay: Selectivity assay: palmitoyl acyltransferase DHHC7; format: biochemical; details: 0 to 10 μM (FIG. 27)
Description: as §1

DHHC4 = assay: Selectivity assay: palmitoyl acyltransferase DHHC4; format: biochemical; details: 0 to 10 μM (FIG. 27)
Description: as §1

TEAD4 [8] = molecular target: T3, TEAD4; assay: In vitro palmitoylation of purified TEAD4 with 1 μM alkyne-palmitoyl-CoA; format: biochemical; details: purified TEAD4, 1 μM alkyne-palmitoyl-CoA, 0 to 10 μM compound (FIG. 23)
Description: Assays were performed to measure inhibition of TEAD2 and TEAD4 palmitoylation in vitro using purified TEAD2 and TEAD4 proteins and 1 μM of alkyne-palmitoyl-CoA. Compound (4) (“CP-1”) was tested at concentrations in the range from 0 to 10 μM and the amount of palmitoylation was quantified.

T3 sequence (Q15561 whole entry, species assumed): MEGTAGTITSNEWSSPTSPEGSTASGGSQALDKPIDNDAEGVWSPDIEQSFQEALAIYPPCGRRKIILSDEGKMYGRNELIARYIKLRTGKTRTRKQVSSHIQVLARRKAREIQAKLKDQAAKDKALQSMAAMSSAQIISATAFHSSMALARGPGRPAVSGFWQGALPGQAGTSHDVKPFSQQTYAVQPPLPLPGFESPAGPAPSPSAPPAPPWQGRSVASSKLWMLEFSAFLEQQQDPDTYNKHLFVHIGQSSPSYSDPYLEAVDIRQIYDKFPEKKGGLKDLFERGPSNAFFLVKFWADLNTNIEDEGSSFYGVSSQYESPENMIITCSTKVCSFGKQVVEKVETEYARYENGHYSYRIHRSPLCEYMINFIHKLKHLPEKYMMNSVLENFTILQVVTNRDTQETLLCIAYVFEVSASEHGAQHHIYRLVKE
T4 sequence (P28347 whole entry): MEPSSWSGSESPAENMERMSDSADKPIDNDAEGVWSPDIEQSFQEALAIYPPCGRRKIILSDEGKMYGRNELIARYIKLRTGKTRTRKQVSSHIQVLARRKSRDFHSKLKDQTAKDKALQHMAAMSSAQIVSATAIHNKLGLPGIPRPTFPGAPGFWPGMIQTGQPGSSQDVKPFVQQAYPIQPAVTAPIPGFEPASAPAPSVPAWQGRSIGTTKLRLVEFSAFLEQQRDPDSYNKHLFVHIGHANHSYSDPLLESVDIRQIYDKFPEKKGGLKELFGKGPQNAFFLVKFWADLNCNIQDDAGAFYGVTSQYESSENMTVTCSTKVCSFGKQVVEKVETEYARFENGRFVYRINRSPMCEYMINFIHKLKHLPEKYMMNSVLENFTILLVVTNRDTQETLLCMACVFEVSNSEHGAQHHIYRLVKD
T1 sequence (P28347 whole entry): as above
Sequence of TEAD1-YAP interaction (P28347 167-426 limits assumed): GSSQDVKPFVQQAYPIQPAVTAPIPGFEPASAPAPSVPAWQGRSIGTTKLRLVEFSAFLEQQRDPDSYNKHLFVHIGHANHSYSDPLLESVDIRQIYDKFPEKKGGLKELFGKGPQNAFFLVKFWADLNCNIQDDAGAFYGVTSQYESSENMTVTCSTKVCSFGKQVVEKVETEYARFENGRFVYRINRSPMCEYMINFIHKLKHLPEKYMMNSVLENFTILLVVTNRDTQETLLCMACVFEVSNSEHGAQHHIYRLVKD
T2 sequence (Q15561 whole entry): as the sequence (Q15561 whole entry, species assumed) above

inhibition of palmitoylation with DHHC11 (DHHC11): did not inhibit
pIC50 (TEAD1-YAP interaction): 7.08
inhibition of TEAD1 palmitoylation in cells (TEAD1): dose-dependently inhibited
inhibition of the interaction of TEAD4 with YAP (TEAD4-YAP interaction): dose-dependently inhibited
inhibition of TEAD4 palmitoylation in cells (TEAD4 [4]): dose-dependently inhibited
inhibition of TEAD4 palmitoylation (TEAD4 [5]): dose-dependently inhibited
effect on the interaction of TEAD1 with Vgll4 (TEAD1-Vgll4 interaction): did not affect
pIC50 (HuH7 cells [7]; Homo sapiens, Huh-7, FIG. 28 panel C): 5.80
inhibition of palmitoylation with DHHC7 (DHHC7): did not inhibit
inhibition of palmitoylation with DHHC4 (DHHC4): did not inhibit
inhibition of TEAD4 palmitoylation in vitro (TEAD4 [8]): dose-dependently inhibited
Structure (SMILES): O=C(CSc1nnc[nH]1)Nc1ccc(C23CC4CC(CC(C4)C2)C3)cc1 [Compound 4]
inhibition of cell proliferation, dose dependency (JHH7 cells [1]; JHH7 (FIG. 28 panel A)): dose-dependently inhibits
inhibition of YAP-dependent cancer cell proliferation (JHH7 cells [1]; JHH, 500 cells/well, 10 μM (FIG. 18)): inhibits
inhibition of colony formation (JHH7 cells [2]): inhibits
inhibition of proliferation of YAP-independent cell lines [3]: less effective
inhibition of colony formation (HuH7 cells [6]; HuH7 (FIG. 28 panel B)): inhibits
inhibition of cancer cell proliferation / colony formation in HuH7 cells (HuH7 cells [6]; tested at 0-20 μM (FIG. 29)): effective
inhibition of cell proliferation, dose dependency (HuH7 cells [7]; HuH7 (FIG. 28 panel A)): dose-dependently inhibits
inhibition of YAP-dependent cancer cell proliferation (HuH7 cells [7]; HuH7, 500 cells/well, 10 μM (FIG. 19)): inhibits
